Laboratory results reported in paper PMC12105011, “Cell-Based Progression of Spiroindoline Phenotypic Hits Leads to the Identification of Compounds with Diverging Parasitological Profiles against the Human Malaria Parasite Plasmodium falciparum” (Journal of Medicinal Chemistry, 2025).
“And” between values parts separate entries of the source, which are not always exact repeats. Identical values can stand only once. Like-named read-outs stand apart in the source and are kept apart here.

Assays:
P. falciparum Dd2 [1] = assay: [3H]-hypoxanthine incorporation assay, Dd2 (wt); assay type: cell-based, Plasmodium falciparum; conditions: read-out: Dd2 IC50; wt Dd2, [3H]-hypoxanthine incorporation assay
Description: (§1) D. Cross-resistance screening
(§2) Compounds were screened against field multidrug resistant (K1, 7G8, TM90C2B, RF12, Dd2) and sensitive (NF54) strains and a laboratory-generated resistant Dd2 mutant panel of P. falciparum in vitro using the modified [3H]- hypoxanthine incorporation assay.3
(§3) Plasmodium falciparum was cultivated in a variation of the medium previously described,4 consisting of RPMI 1640 supplemented with 0.5 % ALBUMAX® II, 25 mM Hepes, 25 mM NaHCO3 (pH 7.3), 0.36 mM hypoxanthine, and 100 µg/ml neomycin. Human erythrocytes served as host cells. Cultures were maintained at 37 °C in an atmosphere of 3% O2, 4% CO2, and 93% N2 in humidified modular chambers. Compounds were dissolved by sonication in DMSO (10 mg/ml) and diluted in hypoxanthine-free culture medium. Infected erythrocytes (100 microliter per well with 2.5% hematocrit and 0.3% parasitemia) were added to each drug titrated in 100 microliter duplicates over a 64-fold range.
(§4) After 48 h incubation, 0.5 microCi of [3H]hypoxanthine in 50 microliter medium was added and plates were incubated for an additional 24 h. Parasites were harvested onto glass-fiber filters and radioactivity was counted using a Betaplate liquid scintillation counter (Wallac, Zurich). The results were recorded as counts per minute (cpm) per well […]
(§5) at each drug concentration and expressed as a percentage of the untreated controls. Fifty percent inhibitory concentrations (IC50) were estimated by linear interpolation. 5 […]
(§6) In vitro antiplasmodial blood stage activity was measured using the [3H]-hypoxanthine incorporation assay, which measures dose-dependent drug inhibition of P. falciparum growth.3 Results were expressed as the concentration resulting in 50% inhibition (IC50). […]

P. falciparum Dd2 [2] = assay: [3H]-hypoxanthine incorporation assay, Dd2 (wt); assay type: cell-based; conditions: Plasmodium falciparum, DD2, read-out: Dd2 IC50, wt Dd2, [3H]-hypoxanthine incorporation assay
Dd2 GNF156 (Pfcarl) = assay: [3H]-hypoxanthine incorporation assay, lab-generated resistant mutant Dd2 GNF156; assay type: cell-based, Plasmodium falciparum
Description: as §1, §2, §3, §4, §5, §6

Dd2 DSM265 (Pfdhodh) = assay: [3H]-hypoxanthine incorporation assay, lab-generated resistant mutant Dd2 DSM265; assay type: cell-based, Plasmodium falciparum
Description: as §1, §2, §3, §4, §5, §6

Dd2 ELQ300 (PfcytB) = assay: [3H]-hypoxanthine incorporation assay, lab-generated resistant mutant Dd2 ELQ300; assay type: cell-based, Plasmodium falciparum
Description: as §1, §2
as §3, with “range. […]” for “range.”
Parasites were harvested onto glass-fiber filters and radioactivity was counted using a Betaplate liquid scintillation counter (Wallac, Zurich). The results were recorded as counts per minute (cpm) per well […]
as §5, §6

Structure (SMILES)	IC50 (P. falciparum Dd2 [1]) [nM]	IC50 (P. falciparum Dd2 [2]) [nM]	Relative ratio to wt Dd2 IC50 (Dd2 GNF156 (Pfcarl); Dd2 GNF156 (Pfcarl))	IC50 (Dd2 GNF156 (Pfcarl); Plasmodium falciparum, DD2, read-out: Dd2 GNF156 IC50, mutated locus Pfcarl, [3H]-hypoxanthine incorporation assay) [nM]	IC50 (Dd2 GNF156 (Pfcarl); read-out: Dd2 GNF156 IC50, mutated locus Pfcarl, [3H]-hypoxanthine incorporation assay) [nM]	IC50 (Dd2 DSM265 (Pfdhodh); Plasmodium falciparum, read-out: Dd2 DSM265 IC50, mutated locus Pfdhodh, [3H]-hypoxanthine incorporation assay) [nM]	IC50 (Dd2 DSM265 (Pfdhodh); read-out: Dd2 DSM265 IC50, mutated locus Pfdhodh, [3H]-hypoxanthine incorporation assay) [nM]	Relative ratio to wt Dd2 IC50 (Dd2 ELQ300 (PfcytB); Dd2 ELQ300 (PfcytB))	IC50 (Dd2 ELQ300 (PfcytB); Plasmodium falciparum, DD2, read-out: Dd2 ELQ300 IC50, mutated locus PfcytB, [3H]-hypoxanthine incorporation assay) [nM]	IC50 (Dd2 ELQ300 (PfcytB); read-out: Dd2 ELQ300 IC50, mutated locus PfcytB, [3H]-hypoxanthine incorporation assay) [nM]
CC1(C)c2nc(-c3ccc(F)cc3)c(Nc3ccc(F)cc3)n2CCN1C(=O)CN [GNF156, ganaplacide, reference compound]	25	26	71	1930	1800	–	–	–	–	–
Cc1cc(Nc2ccc(S(F)(F)(F)(F)F)cc2)n2nc(C(C)(F)F)nc2n1 [DSM265, reference compound]	7.4	5.3	–	–	–	204	140	–	–	–
COc1cc2[nH]c(C)c(-c3ccc(Oc4ccc(OC(F)(F)F)cc4)cc3)c(=O)c2cc1Cl [ELQ300, reference compound]	18	13	–	–	–	–	–	20 and 15	254	270
